This passage reports IC50 results from patent US9334264B2, “NAMPT inhibitors” (AbbVie Inc., priority 2012, dated 2016).

In one assay the target is NAMPT (Homo sapiens, UniProt P43490). Description: Time-Resolved Fluorescence Resonance Energy Transfer (TR-FRET) Binding Assay of NAMPT with PRPP. The conditions noted are these: 200 μM PRPP and 2.5 mM ATP; 2 nM NAMPT, 2 nM probe, equilibrated 16 hours. The method in brief:
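Compounds were equilibrated for 16 hours before TR-FRET readout, with substrates present (200 μM PRPP, 2.5 mM ATP) to permit enzymatic modification. Final mix: 2 nM His-tagged NAMPT, 2 nM probe, 1 nM Tb-anti-His antibody, 2% DMSO.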
On the technique in general: In TR-FRET formats the signal depends on donor and acceptor labels being close together.

Assay [1] concerns the target NAMPT (human, recombinant, C-terminally His-tagged) (Homo sapiens, UniProt P43490). Description: Time-Resolved Fluorescence Resonance Energy Transfer (TR-FRET) Binding Assay of NAMPT. The conditions noted are these: absence of substrates; 6.8 nM NAMPT, 200 nM probe, equilibrated 3 hours. The essentials:
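Compounds (typically 11 half-log dilutions, 2% DMSO final) equilibrated 3 h at room temperature with 6.8 nM human C-His NAMPT, 1 nM Tb-anti-His antibody and 200 nM fluorescent competitive probe in pH 7.5 HEPES buffer. IC50 derived by logistic fit of normalized TR-FRET ratio (520/495 nm).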

Chain of NAMPT (P43490 whole entry): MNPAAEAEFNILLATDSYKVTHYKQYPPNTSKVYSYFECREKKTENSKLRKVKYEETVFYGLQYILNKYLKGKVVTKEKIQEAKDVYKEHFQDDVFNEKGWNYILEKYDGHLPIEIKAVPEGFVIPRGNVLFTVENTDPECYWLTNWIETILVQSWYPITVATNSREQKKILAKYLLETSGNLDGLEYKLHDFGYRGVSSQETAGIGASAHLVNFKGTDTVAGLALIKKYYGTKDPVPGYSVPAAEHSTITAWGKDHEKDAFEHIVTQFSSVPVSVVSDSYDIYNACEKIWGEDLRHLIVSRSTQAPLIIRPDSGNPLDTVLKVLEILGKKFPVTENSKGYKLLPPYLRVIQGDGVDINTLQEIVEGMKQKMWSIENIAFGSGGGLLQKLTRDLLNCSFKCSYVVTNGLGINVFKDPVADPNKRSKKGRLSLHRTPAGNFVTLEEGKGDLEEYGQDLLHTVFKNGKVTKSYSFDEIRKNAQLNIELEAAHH
Chain of NAMPT (human, recombinant, C-terminally His-tagged) (P43490 whole entry): as above

As to `COCCN(C(=O)Cc1ccc(Oc2ccccc2)cc1)c1ncc(C(=O)NCCCn2ccnc2)s1` [Example 186, N-[3-(1H-imidazol-1-yl)propyl]-2-{(2-methoxyethyl)[(4-phenoxyphenyl)acetyl]amino}-1,3-thiazole-5-carboxamide], the IC50 (as a rule, the point on the concentration scale where inhibition reaches its midpoint) was found to be 1.23 nM at NAMPT and 1100 nM in assay [1].
On the same counts, the results for `COCCN(C(=O)Cc1ccc(C#N)cc1)c1ncc(C(=O)NCCCn2ccnc2)s1` [Example 187, 2-{[(4-cyanophenyl)acetyl](2-methoxyethyl)amino}-N-[3-(1H-imidazol-1-yl)propyl]-1,3-thiazole-5-carboxamide] are 0.216 nM and 3210 nM.
On the same counts, the results for `COCCN(C(=O)Cc1ccc(N)cc1)c1ncc(C(=O)NCCCn2ccnc2)s1` [Example 188, 2-{[(4-aminophenyl)acetyl](2-methoxyethyl)amino}-N-[3-(1H-imidazol-1-yl)propyl]-1,3-thiazole-5-carboxamide] are 0.195 nM and 356 nM.
On the same counts, the results for `C=CCN(CC=C)CCN(C(=O)CCOC)c1ncc(C(=O)NCCCn2ccnc2)s1` [Example 189, 2-[{2-[di(prop-2-en-1-yl)amino]ethyl}(3-methoxypropanoyl)amino]-N-[3-(1H-imidazol-1-yl)propyl]-1,3-thiazole-5-carboxamide] are 0.586 nM and 4700 nM.
On to `CCN(CC)CCCN(C(=O)CCOC)c1ncc(C(=O)NCCCn2ccnc2)s1` [Example 190, 2-{[3-(diethylamino)propyl](3-methoxypropanoyl)amino}-N-[3-(1H-imidazol-1-yl)propyl]-1,3-thiazole-5-carboxamide], for which the values for the half-maximal inhibitory concentration (IC50) (on NAMPT; in assay [1]) were 0.606 nM and 2610 nM, respectively.
For `CCN(CC)CCN(C(=O)CCOC)c1ncc(C(=O)NCCCn2ccnc2)s1` [Example 191, 2-{[2-(diethylamino)ethyl](3-methoxypropanoyl)amino}-N-[3-(1H-imidazol-1-yl)propyl]-1,3-thiazole-5-carboxamide], in that order: 0.265 nM and over 10000 nM.
On the same counts, the results for `COCCC(=O)N(CCCN1CCCC1)c1ncc(C(=O)NCCCn2ccnc2)s1` [Example 192, N-[3-(1H-imidazol-1-yl)propyl]-2-{(3-methoxypropanoyl)[3-(pyrrolidin-1-yl)propyl]amino}-1,3-thiazole-5-carboxamide] are 0.262 nM and over 10000 nM.
For `CCN1CC(CN(C(=O)CCOC)c2ncc(C(=O)NCCCn3ccnc3)s2)CC1=O` (stereo not drawn) [Example 193, 2-{[(1-ethyl-5-oxopyrrolidin-3-yl)methyl](3-methoxypropanoyl)amino}-N-[3-(1H-imidazol-1-yl)propyl]-1,3-thiazole-5-carboxamide], in that order: 0.755 nM and 6060 nM.
Consider `COCCC(=O)N(CC1CCC(=O)N1)c1ncc(C(=O)NCCCn2ccnc2)s1` (stereo not drawn) [Example 194, N-[3-(1H-imidazol-1-yl)propyl]-2-{(3-methoxypropanoyl)[(5-oxopyrrolidin-2-yl)methyl]amino}-1,3-thiazole-5-carboxamide], for which the IC50 on NAMPT came out at 1.12 nM; in assay [1] it was 7250 nM.
On the same counts, the results for `COCCC(=O)N(CCC(=O)N1CCCC1)c1ncc(C(=O)NCCCn2ccnc2)s1` [Example 195, N-[3-(1H-imidazol-1-yl)propyl]-2-{(3-methoxypropanoyl)[3-oxo-3-(pyrrolidin-1-yl)propyl]amino}-1,3-thiazole-5-carboxamide] are 0.338 nM and over 10000 nM.
For `COCCC(=O)N(CC(=O)N1CCCCC1)c1ncc(C(=O)NCCCn2ccnc2)s1` [Example 196, N-[3-(1H-imidazol-1-yl)propyl]-2-{(3-methoxypropanoyl)[2-oxo-2-(piperidin-1-yl)ethyl]amino}-1,3-thiazole-5-carboxamide], in that order: 0.538 nM and 7010 nM.
On the same counts, the results for `COCCC(=O)N(CCCN1CCCC1=O)c1ncc(C(=O)NCCCn2ccnc2)s1` [Example 197, N-[3-(1H-imidazol-1-yl)propyl]-2-{(3-methoxypropanoyl)[3-(2-oxopyrrolidin-1-yl)propyl]amino}-1,3-thiazole-5-carboxamide] are 0.251 nM and 9210 nM.
Consider `COCCC(=O)N(CCN1CCOC1=O)c1ncc(C(=O)NCCCn2ccnc2)s1` [Example 198, N-[3-(1H-imidazol-1-yl)propyl]-2-{(3-methoxypropanoyl)[2-(2-oxo-1,3-oxazolidin-3-yl)ethyl]amino}-1,3-thiazole-5-carboxamide], for which the results for the IC50 (at NAMPT; in assay [1]) were 0.633 nM and 2610 nM, respectively.
Regarding `COCCC(=O)N(CCNC(=O)C(C)C)c1ncc(C(=O)NCCCn2ccnc2)s1` [Example 199, N-[3-(1H-imidazol-1-yl)propyl]-2-[(3-methoxypropanoyl){2-[(2-methylpropanoyl)amino]ethyl}amino]-1,3-thiazole-5-carboxamide], the values for the concentration for half-maximal inhibition (IC50) (at NAMPT; in assay [1]) were 0.493 nM and over 10000 nM, respectively.
On the same counts, the results for `CNC(=O)CCN(C(=O)CCOC)c1ncc(C(=O)NCCCn2ccnc2)s1` [Example 200, N-[3-(1H-imidazol-1-yl)propyl]-2-{(3-methoxypropanoyl)[3-(methylamino)-3-oxopropyl]amino}-1,3-thiazole-5-carboxamide] are 0.747 nM and over 10000 nM.
For `COCCC(=O)N(CCCNC(C)=O)c1ncc(C(=O)NCCCn2ccnc2)s1` [Example 201, 2-{[3-(acetylamino)propyl](3-methoxypropanoyl)amino}-N-[3-(1H-imidazol-1-yl)propyl]-1,3-thiazole-5-carboxamide], in that order: 0.457 nM and over 10000 nM.
For `COCCC(=O)N(CC(=O)N1CCCC1)c1ncc(C(=O)NCCCn2ccnc2)s1` [Example 202, N-[3-(1H-imidazol-1-yl)propyl]-2-{(3-methoxypropanoyl)[2-oxo-2-(pyrrolidin-1-yl)ethyl]amino}-1,3-thiazole-5-carboxamide], in that order: 0.405 nM and 4990 nM.
For the compound `O=C(NCCCn1ccnc1)c1cnc(N2CCN(CCO)C2=O)s1` [Example 203, 2-[3-(2-hydroxyethyl)-2-oxoimidazolidin-1-yl]-N-[3-(1H-imidazol-1-yl)propyl]-1,3-thiazole-5-carboxamide], the IC50 at NAMPT is 13.6 nM; in assay [1], over 10000 nM.
For `O=C(NCCCn1ccnc1)c1cnc(N2CCN(c3ccc(F)cc3)C2=O)s1` [Example 204, 2-[3-(4-fluorophenyl)-2-oxoimidazolidin-1-yl]-N-[3-(1H-imidazol-1-yl)propyl]-1,3-thiazole-5-carboxamide], in that order: 1.46 nM and 3730 nM.
For `O=C(NCCCn1ccnc1)c1cnc(N(Cc2ccc(Cl)cn2)C(=O)C2CCOCC2)s1` [Example 205, 2-{[(5-chloropyridin-2-yl)methyl](tetrahydro-2H-pyran-4-ylcarbonyl)amino}-N-[3-(1H-imidazol-1-yl)propyl]-1,3-thiazole-5-carboxamide], in that order: 0.177 nM and 739 nM.
On the same counts, the results for `O=C(NCCCn1ccnc1)c1cnc(N(Cc2ccc(Cl)cn2)C(=O)C2CCOC2)s1` (stereo not drawn) [Example 206, 2-{[(5-chloropyridin-2-yl)methyl](tetrahydrofuran-3-ylcarbonyl)amino}-N-[3-(1H-imidazol-1-yl)propyl]-1,3-thiazole-5-carboxamide] are 0.633 nM and 5630 nM.
For `COCCC(=O)N(CCc1ccc(Cl)cn1)c1ncc(C(=O)NCCCn2ccnc2)s1` [Example 207, 2-{[2-(5-chloropyridin-2-yl)ethyl](3-methoxypropanoyl)amino}-N-[3-(1H-imidazol-1-yl)propyl]-1,3-thiazole-5-carboxamide], the figures for the IC50 (on NAMPT; in assay [1]) were 0.331 nM and 3860 nM, respectively.
For `O=C(NCCCn1ccnc1)c1cnc(N(CCc2ccc(Cl)cn2)C(=O)C2CCOC2)s1` (stereo not drawn) [Example 208, 2-{[2-(5-chloropyridin-2-yl)ethyl](tetrahydrofuran-3-ylcarbonyl)amino}-N-[3-(1H-imidazol-1-yl)propyl]-1,3-thiazole-5-carboxamide], in that order: 0.25 nM and 2890 nM.
With `COCCNC(=O)N(CCc1ccc(Cl)cn1)c1ncc(C(=O)NCCCn2ccnc2)s1` [Example 209, 2-{[2-(5-chloropyridin-2-yl)ethyl][(2-methoxyethyl)carbamoyl]amino}-N-[3-(1H-imidazol-1-yl)propyl]-1,3-thiazole-5-carboxamide], the 50% inhibitory concentration (IC50) at NAMPT came out at 0.245 nM; in assay [1], 6700 nM.
For `CC(C)OCCNC(=O)N(CCc1ccc(Cl)cn1)c1ncc(C(=O)NCCCn2ccnc2)s1` [Example 210, 2-([2-(5-chloropyridin-2-yl)ethyl]{[2-(propan-2-yloxy)ethyl]carbamoyl}amino)-N-[3-(1H-imidazol-1-yl)propyl]-1,3-thiazole-5-carboxamide], in that order: 0.192 nM and 2740 nM.
On the same counts, the results for `O=C(NCCCn1ccnc1)c1cnc(N2C[C@H](CN3C(=O)c4ccccc4C3=O)OC2=O)s1` [Example 212, 2-{(5S)-5-[(1,3-dioxo-1,3-dihydro-2H-isoindol-2-yl)methyl]-2-oxo-1,3-oxazolidin-3-yl}-N-[3-(1H-imidazol-1-yl)propyl]-1,3-thiazole-5-carboxamide] are 1.03 nM and 5710 nM.
On the same counts, the results for `COCCN(C(=O)Cc1ccccn1)c1ncc(C(=O)NCCCn2ccnc2)s1` [Example 213, N-[3-(1H-imidazol-1-yl)propyl]-2-[(2-methoxyethyl)(pyridin-2-ylacetyl)amino]-1,3-thiazole-5-carboxamide] are 0.411 nM and 9860 nM.
